According to US20130266668A1, “USE OF HEMOGLOBIN EFFECTORS TO INCREASE THE BIOAVAILABILITY OF THERAPEUTIC GASES” (VIRGINIA COMMONWEALTH UNIVERSITY, priority 2010, published 2013):
Where “and” joins values, the source holds several entries; their conditions need not be identical. Identical values can stand only once.

Tests used:
[1] = Oxygen affinity of HBOC-1 itself, without RSR-13 (multiple-point tonometer); format: biochemical, bovine; conditions: HBOC-1 13.4 g/dL alone, 0 RSR-13
Protocol: (§1) The effect of RSR-13 on the oxygen affinity of erythswHb and erythhHb, and HBOC-1 was determined using multiple-point tonometer. RSR-13 (1, 2 or 5 mM) was incubated with blood from swine or human (hct ˜30%) or HBOC-1 (13.4 g/dL) for 30 minutes. The Hb-compound mixture was then further incubated in IL 237 tonometers (Instrumentation Laboratories, Inc. Lexington, Mass.) for 5 minutes at 37° C. to equilibrate at oxygen tensions of 6 mmHg or 20 mmHg or 40 mmHg or 60 mmHg. Following, the sample is aspirated into an IL 1420 Automated Blood Gas Analyzer and an IL 682 Co-oximeter (Instrumentation Laboratories) or ABL 700 Blood Gas Analyzer (Radiometer, Westlake, Ohio) to determine the pH, pCO2, pO2, and Hb oxygen saturation values (SO2). The measured values of pO2 and SO2 were then subjected to a non-linear regression analysis using the program Scientist to estimate the P50 and Hill coefficient values (cooperativity of oxygen binding; n50).

[2] = biological target: T1, human whole blood or erythrocyte (erythhHb) (Homo sapiens, UniProt P68871+P69905); assay: Effect of RSR-13 on oxygen affinity of human whole blood (multiple-point tonometer); format: biochemical; conditions: human blood hct 30%
T1 construct: from tissue; host or cells: human whole blood (hct ~30%)
Protocol: as §1

[3] = biological target: T2, swine whole blood or erythrocyte (erythswHb) (Sus scrofa, UniProt P01965+P02067); assay: Effect of RSR-13 on oxygen affinity of swine whole blood (multiple-point tonometer); format: biochemical
T2 construct: from tissue; host or cells: swine whole blood (hct 30%, 20% or 15%)
Protocol: as §1, with “RSR-13 (1, 2 or 5 mM) was incubated with blood from swine or human (hct ˜30%) or HBOC-1 (13.4 g/dL) for 30 minutes.” left out

HBOC-1 (13.4 g/dL) = biological target: T3, HBOC-1 (13.4 g/dL) (Bos taurus, UniProt P01966+P02070); assay: Effect of RSR-13 on oxygen affinity of HBOC-1 (multiple-point tonometer); format: biochemical, bovine
T3 construct: is a highly purified bovine Hb that is crosslinked with gluteraldehyde; purchased BioPure Inc
T3 sequence (P01966 2-142 limits assumed): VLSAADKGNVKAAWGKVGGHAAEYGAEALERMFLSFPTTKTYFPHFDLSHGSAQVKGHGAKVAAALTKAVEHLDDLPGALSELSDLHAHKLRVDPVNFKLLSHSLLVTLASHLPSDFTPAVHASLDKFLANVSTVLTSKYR
T3 sequence (P02070 whole entry): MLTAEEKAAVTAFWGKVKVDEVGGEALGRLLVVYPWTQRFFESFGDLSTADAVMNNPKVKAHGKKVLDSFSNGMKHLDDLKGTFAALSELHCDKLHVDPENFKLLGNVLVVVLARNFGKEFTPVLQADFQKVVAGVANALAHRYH
Protocol: as §1

[4] = biological target: T4, erythswHb/HBOC-1 solution mixture (UniProt P01965+P01966+P02067+P02070); assay: Effect of RSR-13 on oxygen affinity of erythswHb/HBOC-1 solution mixtures; format: biochemical, swine; conditions: 2 mM RSR-13
T4 construct: composed of either 15% or 20% hct whole blood in 13.4 g/dL of HBOC-1; is a highly purified bovine Hb that is crosslinked with gluteraldehyde; tissue BioPure Inc (HBOC-1 part); host or cells: swine whole blood (hct 15 or 20%) mixed with HBOC-1 (13.4 g/dL) at 75:25 or 50:50 by volume
T4 sequence (P01965 whole entry): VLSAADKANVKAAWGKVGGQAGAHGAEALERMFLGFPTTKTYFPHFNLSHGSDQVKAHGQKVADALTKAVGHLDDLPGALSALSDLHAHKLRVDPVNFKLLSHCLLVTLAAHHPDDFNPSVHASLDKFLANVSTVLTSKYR
T4 sequence (P02067 whole entry): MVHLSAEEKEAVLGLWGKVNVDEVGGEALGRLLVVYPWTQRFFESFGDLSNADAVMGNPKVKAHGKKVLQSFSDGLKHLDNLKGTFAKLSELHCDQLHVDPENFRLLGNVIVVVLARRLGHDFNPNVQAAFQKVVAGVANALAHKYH
T4 sequence (P01966 2-142 limits assumed): as the sequence (P01966 2-142 limits assumed) above
T4 sequence (P02070 whole entry): as the sequence (P02070 whole entry) above
Protocol: as §1
RSR-13 (2 mM) was incubated with erythswHb (hct of 15 or 20%)/HBOC-1 (13.4 g/dL) solution mixture in a volume ratio of 75:25 and 50:50 for 30 minutes. The Hb-compound mixture was then analyzed for their P50 and Hill coefficient values as described above.

[5] = biological target: T5, NO derivative of cell free human Hb (NOhHb) (Homo sapiens, UniProt P68871+P69905); assay: Effect of RSR-13 on Soret absorbance of NO derivative of cell free human Hb; format: biochemical
T5 construct: Human hemoglobin (hHb) or swine Hb (swHb) was purified from discarded blood samples; from tissue; host or cells: purified in house from discarded human blood samples
T5 sequence (P69905 2-142 limits assumed): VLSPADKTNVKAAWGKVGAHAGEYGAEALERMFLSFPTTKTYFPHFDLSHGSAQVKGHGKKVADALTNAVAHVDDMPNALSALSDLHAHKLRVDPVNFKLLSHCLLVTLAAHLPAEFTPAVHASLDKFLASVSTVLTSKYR
T5 sequence (P68871 2-147 limits assumed): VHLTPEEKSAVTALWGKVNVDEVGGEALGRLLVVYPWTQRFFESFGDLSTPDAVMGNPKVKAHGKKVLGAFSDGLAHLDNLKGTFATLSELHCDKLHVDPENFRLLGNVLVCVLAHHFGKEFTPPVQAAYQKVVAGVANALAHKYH
Protocol: (§2) Effect of RSR-13 on the absorption spectra in the soret region of the nitrosylated derivatives of cell free Hb from human and swine, and HBOC-1 were recorded at 37° C. using HP Agilant 8453 Spectrophotometer using 1 cm path length cuvette. Solid Na dithionite (2 mg/mL) was added to the Hb to make the fully deoxygenated Hb, followed by addition of solid diethylamine NONOate (1.3 mg/mL) to make the NOhHb or NOswHb, or NOHBOC-1 derivatives. RSR-13 (20 uM-800 uM) were added to 65 ug of the NO derivatives and the spectrum monitored in the soret region at 417 nm.

[6] = biological target: T6, NO derivative of cell free swine Hb (NOswHb) (Sus scrofa, UniProt P01965+P02067); assay: Effect of RSR-13 on Soret absorbance of NO derivative of cell free swine Hb; format: biochemical
T6 construct: Human hemoglobin (hHb) or swine Hb (swHb) was purified from discarded blood samples; from tissue; host or cells: purified in house from discarded swine blood samples
T6 sequence (P01965 whole entry): as the sequence (P01965 whole entry) above
T6 sequence (P02067 2-147 limits assumed): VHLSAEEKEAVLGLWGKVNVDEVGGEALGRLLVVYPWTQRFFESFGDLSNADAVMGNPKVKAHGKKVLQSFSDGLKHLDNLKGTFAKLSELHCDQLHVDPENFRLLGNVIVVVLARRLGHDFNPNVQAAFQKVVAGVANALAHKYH
Protocol: as §2

[7] = biological target: T7, NO derivative of HBOC-1 (NOHBOC-1) (Bos taurus, UniProt P01966+P02070); assay: Effect of RSR-13 on Soret absorbance of NO derivative of HBOC-1; format: biochemical, bovine
T7 construct: is a highly purified bovine Hb that is crosslinked with gluteraldehyde; purchased BioPure Inc
T7 sequence (P01966 2-142 limits assumed): as the sequence (P01966 2-142 limits assumed) above
T7 sequence (P02070 whole entry): as the sequence (P02070 whole entry) above
Protocol: as §2

[8] = biological target: T8, COHb in swine whole blood (hct of 30%) (Sus scrofa, UniProt P01965+P02067); assay: Effect of RSR-13 on COHb levels of swine blood; format: biochemical; conditions: 2 mM RSR-13, after 30 minutes
T8 construct: from tissue; host or cells: swine whole blood (hct 30%, 20% or 15%)
T8 sequence (P01965 whole entry): as the sequence (P01965 whole entry) above
T8 sequence (P02067 2-147 limits assumed): as the sequence (P02067 2-147 limits assumed) above
Protocol: (§3) To determine whether RSR-13 will reduce COHb levels in swine blood or HBOC-1, we incubated HBOC-1 (13.4 g/dL) that has been exposed to CO to form ˜51% COHb, and swine whole blood (hct of 30%) that has been exposed to CO to form ˜52 or 10% COHb concentrations with 2 mM RSR-13. RSR-13 was able to reduce the amount of COHb by about 16% in the swine blood in the experiment starting with either 10% or 52% COHb level, and about 14% in the HBOC-1.

[9] = biological target: T9, COHb in HBOC-1 (13.4 g/dL) (Bos taurus, UniProt P01966+P02070); assay: Effect of RSR-13 on COHb levels of HBOC-1; format: biochemical, bovine; conditions: HBOC-1 13.4 g/dL exposed to CO to ~51% COHb (control 51.1), 2 mM RSR-13, after 30 minutes
T9 construct: is a highly purified bovine Hb that is crosslinked with gluteraldehyde; purchased BioPure Inc
T9 sequence (P01966 2-142 limits assumed): as the sequence (P01966 2-142 limits assumed) above
T9 sequence (P02070 whole entry): as the sequence (P02070 whole entry) above
Protocol: as §3

whole blood = biological target: T10, whole blood (Homo sapiens, UniProt P68871+P69905); conditions: Phase I studies, doses of 75-100 mg/kg; cited from earlier work
T10 construct: host or cells: whole blood of dosed subjects
T10 sequence (P69905 2-142 limits assumed): as the sequence (P69905 2-142 limits assumed) above
T10 sequence (P68871 2-147 limits assumed): as the sequence (P68871 2-147 limits assumed) above

[10] = swine blood (100%) hct 15%, 2 mM RSR-13
[11] = swine blood (100%) hct 20%, 2 mM RSR-13
[12] = swine blood hct 30%, 1 mM RSR-13
[13] = swine blood hct 30%, 2 mM RSR-13
[14] = swine blood hct 30%, 5 mM RSR-13
[15] = Blood/HBOC (50:50), swine blood hct 15%
[16] = Blood/HBOC (50:50), swine blood hct 20%
[17] = Blood/HBOC (75:25), swine blood hct 15%
[18] = Blood/HBOC (75:25), swine blood hct 20%

For “HBOC-1: Oxyglobin® from BioPure Inc: highly purified bovine Hb that is crosslinked with gluteraldehyde”, the P50 [1] was 58.5 mmHg and 58.5 ± 6.9 mmHg and the n50 [1] was 1.2 and 1.2 ± 0.3.

For `Cc1cc(C)cc(NC(=O)Cc2ccc(OC(C)(C)C(=O)O)cc2)c1` [RSR-13, 2-[4-[2-[(3,5-dimethylphenyl)amino]-2-oxoethyl]phenoxy]-2-methylpropanoic acid], the P50 ([2]; 1 mM RSR-13) was 35.1 ± 2.2 mmHg, the n50 ([2]; 1 mM RSR-13) was 2.4 ± 0.2 and the ΔP50 ([2]; 1 mM RSR-13) was 3.3 mmHg. The P50 ([2]; 2 mM RSR-13) was 42.0 ± 1.7 mmHg, the n50 ([2]; 2 mM RSR-13) was 2.0 ± 0.3 and the ΔP50 ([2]; 2 mM RSR-13) was 10.2 mmHg. The P50 ([2]; 5 mM RSR-13) was 78.0 ± 1.2 mmHg, the n50 ([2]; 5 mM RSR-13) was 1.8 ± 0.1 and the ΔP50 ([2]; 5 mM RSR-13) was 46.2 mmHg. The P50 [3, 10] was 62.3 ± 0.5 mmHg, the n50 [3, 10] was 2.2 ± 0.2 and the ΔP50 [3, 10] was 25.0 mmHg. It also gave a P50 [3, 11] of 51.3 ± 3.2 mmHg, a n50 [3, 11] of 2.2 ± 0.1 and a ΔP50 [3, 11] of 16.8 mmHg. For the same compound, the P50 [3, 12] was 34.5 ± 0.2 mmHg, the n50 [3, 12] was 2.6 ± 0.3 and the ΔP50 [3, 12] was 3.9 mmHg. For the same compound, the P50 [3, 13] was 41.5 ± 0.5 mmHg, the n50 [3, 13] was 2.3 ± 0.0 and the ΔP50 [3, 13] was 11.3 mmHg. For the same compound, the P50 [3, 14] was 72.1 ± 1.3 mmHg, the n50 [3, 14] was 1.9 ± 0.1 and the ΔP50 [3, 14] was 41.5 mmHg. For the same compound, the P50 (HBOC-1 (13.4 g/dL); 2 mM RSR-13) was 73.6 ± 3.0 mmHg, the n50 (HBOC-1 (13.4 g/dL); 2 mM RSR-13) was 1.1 ± 0.3 and the ΔP50 (HBOC-1 (13.4 g/dL); 2 mM RSR-13) was 15.1 mmHg. For the same compound, the P50 (HBOC-1 (13.4 g/dL); 5 mM RSR-13) was 83.5 ± 3.4 mmHg, the n50 (HBOC-1 (13.4 g/dL); 5 mM RSR-13) was 1.1 ± 0.3 and the ΔP50 (HBOC-1 (13.4 g/dL); 5 mM RSR-13) was 25 mmHg and 25.0 mmHg. It also gave a P50 [4, 15] of 74.0 ± 2.1 mmHg, a n50 [4, 15] of 1.5 ± 0.1 and a ΔP50 [4, 15] of 21.2 mmHg. For the same compound, the P50 [4, 16] was 68.0 ± 4.2 mmHg, the n50 [4, 16] was 1.8 ± 0.3 and the ΔP50 [4, 16] was 20.5 mmHg. It also gave a P50 [4, 17] of 75.1 ± 5.6 mmHg, a n50 [4, 17] of 1.7 ± 0.1 and a ΔP50 [4, 17] of 27.6 mmHg. It also gave a P50 [4, 18] of 61.5 ± 3.6 mmHg, a n50 [4, 18] of 2.1 ± 0.1 and a ΔP50 [4, 18] of 18.1 mmHg. The “Percentage (%) decrease in absorbance intensity at 417 nm” value (shortened to “Percentage (%) decrease”) ([5]; 20 uM RSR-13) was 3.2 ± 0.4%, the “Percentage (%) decrease” value ([5]; 100 uM RSR-13) was 8.9 ± 0.3% and the “Percentage (%) decrease” value ([5]; 200 uM RSR-13) was 13.2 ± 0.3%. The “Percentage (%) decrease” value ([5]; 300 uM RSR-13) was 16.5 ± 0.4%, the “Percentage (%) decrease” value ([6]; 20 uM RSR-13) was 3.3 ± 0.4% and the “Percentage (%) decrease” value ([6]; 100 uM RSR-13) was 7.9 ± 0.4%. For the same compound, the “Percentage (%) decrease” value ([6]; 200 uM RSR-13) was 14.9 ± 0.3%, the “Percentage (%) decrease” value ([6]; 300 uM RSR-13) was 17.1 ± 0.5% and the “Percentage (%) decrease” value ([7]; 100 uM RSR-13) was 4.7 ± 0.2%. The “Percentage (%) decrease” value ([7]; 200 uM RSR-13) was 6.1 ± 0.3%, the “Percentage (%) decrease” value ([7]; 300 uM RSR-13) was 7.8 ± 0.5% and the “Percentage (%) decrease” value ([7]; 800 uM RSR-13) was 15.5 ± 0.5%. It also gave a COHb levels ([8]; swine blood hct 30% exposed to CO to ~10% COHb (control 10.2)) of 8.5 ± 0.3%, a COHb levels ([8]; swine blood hct 30% exposed to CO to ~52% COHb (control 52.4)) of 44.2 ± 1.0% and a COHb levels [9] of 44.1 ± 0.7%. For the same compound, the “increase of the P50 of whole blood” value (whole blood) was 10 Torr.
